Drawing on patent US7265120B2, “Pyrazine derivatives and pharmaceutical use thereof” (Astellas Pharma Inc., priority 2004, dated 2007), this text covers melting point for 35 compounds.

For orientation: melting point means the temperature, or range, at which the solid turns liquid. In the case of `CC(C)n1nc(-c2nc(-c3ccco3)c(N)nc2-c2ccccc2)ccc1=O` [Example 88, 6-[5-amino-6-(2-furyl)-3-phenyl-2-pyrazinyl]-2-isopropyl-3(2H)-pyridazinone], the melting point lay within 211 to 213 °C.

Compound `Cn1nc(-c2nc(-c3ccco3)c(N)nc2-c2ccccc2)ccc1=O` [Example 89, 6-[5-amino-6-(2-furyl)-3-phenyl-2-pyrazinyl]-2-methyl-3(2H)-pyridazinone] returned a melting point of 186 to 188 °C.

With `CC(C)n1nc(-c2nc(-c3cn[nH]c3)c(N)nc2-c2ccccc2)ccc1=O` [Example 90, 6-[5-amino-3-phenyl-6-(1H-pyrazol-4-yl)-2-pyrazinyl]-2-isopropyl-3(2H)-pyridazinone], the melting point is more than 250 °C.

`CC(C)n1nc(-c2nc(C3=CCCN(C)C3)c(N)nc2-c2ccccc2)ccc1=O` [Example 92, 6-[5-amino-6-(1-methyl-1,2,5,6-tetrahydro-3-pyridyl)-3-phenyl-2-pyrazinyl]-2-isopropyl-3(2H)-pyridazinone]: the melting point was in the range of 191 to 193 °C.

In turn, `CC(C)n1nc(-c2nc(-c3cnn(C)c3)c(N)nc2-c2ccccc2)ccc1=O` [Example 93, 6-[5-amino-6-(1-methyl-1H-pyrazol-4-yl)-3-phenyl-2-pyrazinyl]-2-isopropyl-3(2H)-pyridazinone] displayed a melting point of 201 to 203 °C.

The compound `CC(=O)c1nc(-c2ccc(=O)n(C(C)C)n2)c(-c2ccccc2)nc1N` [Example 94, 6-(6-acetyl-5-amino-3-phenyl-2-pyrazinyl)-2-isopropyl-3(2H)-pyridazinone] returned a melting point of 234 to 236.5 °C.

As for `CCOC(=O)C=Cc1nc(-c2ccc(=O)n(C(C)C)n2)c(-c2ccccc2)nc1N` [Example 95, ethyl 3-[3-amino-6-(1-isopropyl-6-oxo-1,6-dihydro-3-pyridazinyl)-5-phenyl-2-pyrazinyl]acrylate], the melting point lay in the range of 233 to 236 °C.

The compound `CC(C)n1nc(-c2nc(NCc3ccccc3)c(N)nc2-c2ccccc2)ccc1=O` [Example 96, 6-[5-amino-6-(benzylamino)-3-phenyl-2-pyrazinyl]-2-isopropyl-3(2H)-pyridazinone] had a melting point of 181 to 183.5 °C.

In the case of `CC(C)n1nc(-c2nc(N(C)C)c(N)nc2-c2ccccc2)ccc1=O` [Example 96, 6-[5-amino-6-(dimethylamino)-3-phenyl-2-pyrazinyl]-2-isopropyl-3(2H)-pyridazinone], the melting point was in the range of 174 to 176 °C.

`COc1ccc(CNc2nc(-c3ccc(=O)n(C(C)C)n3)c(-c3ccccc3)nc2N)cc1` [Example 97, 6-{5-amino-6-[(4-methoxybenzyl)amino]-3-phenyl-2-pyrazinyl}-2-isopropyl-3(2H)-pyridazinone]: the melting point fell in the range of 188.5 to 191.5 °C.

Consider `CC(C)n1nc(-c2nc(NCc3ccccn3)c(N)nc2-c2ccccc2)ccc1=O` [Example 98, 6-{5-amino-3-phenyl-6-[(2-pyridylmethyl)amino]-2-pyrazinyl}-2-isopropyl-3(2H)-pyridazinone], for which the melting point lay in the range of 192 to 194 °C.

The compound `CCCCNc1nc(-c2ccc(=O)n(C(C)C)n2)c(-c2ccccc2)nc1N` [Example 99, 6-[5-amino-6-(butylamino)-3-phenyl-2-pyrazinyl]-2-isopropyl-3(2H)-pyridazinone] had a melting point of 200 to 202 °C.

On to `CCCCNc1nc(-c2ccc(=O)n(C)n2)c(-c2ccccc2)nc1N` [Example 100, 6-[5-amino-6-(butylamino)-3-phenyl-2-pyrazinyl]-2-methyl-3(2H)-pyridazinone], for which the melting point was in the range of 253 to 255 °C.

`C=CCNc1nc(-c2ccc(=O)n(C(C)C)n2)c(-c2ccccc2)nc1N` [Example 101, 6-[6-(allylamino)-5-amino-3-phenyl-2-pyrazinyl]-2-isopropyl-3(2H)-pyridazinone] gave a melting point of 208 to 210 °C.

`COCCNc1nc(-c2ccc(=O)n(C(C)C)n2)c(-c2ccccc2)nc1N` [Example 102, 6-{5-amino-6-[(2-methoxyethyl)amino]-3-phenyl-2-pyrazinyl}-2-isopropyl-3(2H)-pyridazinone]: the melting point is 208 to 209.5 °C.

`CC(C)n1nc(-c2nc(NCCN3CCCCC3)c(N)nc2-c2ccccc2)ccc1=O` [Example 103, 6-(5-amino-3-phenyl-6-{[2-(1-piperidinyl)ethyl]amino}-2-pyrazinyl)-2-isopropyl-3(2H)-pyridazinone]: the melting point is 204.5 to 207 °C.

`CC(C)n1nc(-c2nc(NCCN3CCOCC3)c(N)nc2-c2ccccc2)ccc1=O` [Example 104, 6-(5-amino-6-{[2-(4-morpholinyl)ethyl]amino}-3-phenyl-2-pyrazinyl)-2-isopropyl-3(2H)-pyridazinone]: the melting point was in the range of 230 to 232.5 °C.

Regarding `CC(C)n1nc(-c2nc(NCC3CCCCC3)c(N)nc2-c2ccccc2)ccc1=O` [Example 105, 6-{5-amino-6-[(cyclohexylmethyl)amino]-3-phenyl-2-pyrazinyl}-2-isopropyl-3(2H)-pyridazinone], the melting point was in the range of 219 to 221 °C.

On to `CC(C)n1nc(-c2nc(NCCc3ccccn3)c(N)nc2-c2ccccc2)ccc1=O` [Example 106, 6-(5-amino-3-phenyl-6-{[2-(2-pyridyl)ethyl]amino}-2-pyrazinyl)-2-isopropyl-3(2H)-pyridazinone], for which the melting point fell in the range of 204 to 206 °C.

As for `CC(C)n1nc(-c2nc(NC3CCN(Cc4ccccc4)CC3)c(N)nc2-c2ccccc2)ccc1=O` [Example 107, 6-{5-amino-6-[(1-benzyl-4-piperidinyl)amino]-3-phenyl-2-pyrazinyl}-2-isopropyl-3(2H)-pyridazinone], the melting point lay in the range of 214 to 216.5 °C.

In turn, `CC(C)n1nc(-c2nc(N3CCCCC3)c(N)nc2-c2ccccc2)ccc1=O` [Example 108, 6-[5-amino-3-phenyl-6-(1-piperidinyl)-2-pyrazinyl]-2-isopropyl-3(2H)-pyridazinone] displayed a melting point of 183 to 185 °C.

`CC(C)n1nc(-c2nc(N3CCC(N(C)C)C3)c(N)nc2-c2ccccc2)ccc1=O` (centres unmarked) [Example 109, 6-{5-amino-6-[3-(dimethylamino)-1-pyrrolidinyl]-3-phenyl-2-pyrazinyl}-2-isopropyl-3(2H)-pyridazinone] showed a melting point of 150 to 152 °C.

Compound `COC1CCN(c2nc(-c3ccc(=O)n(C(C)C)n3)c(-c3ccccc3)nc2N)CC1` [Example 110, 6-[5-amino-6-(4-methoxy-1-piperidinyl)-3-phenyl-2-pyrazinyl]-2-isopropyl-3(2H)-pyridazinone] displayed a melting point of 179 to 181 °C.

As for `CC(C)n1nc(-c2nc(N3CCC(NS(C)(=O)=O)CC3)c(N)nc2-c2ccccc2)ccc1=O` [Example 111, N-{1-[3-amino-6-(1-isopropyl-6-oxo-1,6-dihydro-3-pyridazinyl)-5-phenyl-2-pyrazinyl]-4-piperidinyl}methanesulfonamide], the melting point lay within 220 to 222 °C.

As to `CC(C)n1nc(-c2nc(N3CCNCC3)c(N)nc2-c2ccccc2)ccc1=O` [Example 112, 6-[5-amino-3-phenyl-6-(1-piperazinyl)-2-pyrazinyl]-2-isopropyl-3(2H)-pyridazinone], the melting point was in the range of 157 to 159 °C.

In turn, `CC(C)n1nc(-c2nc(N3CCN(C)CC3)c(N)nc2-c2ccccc2)ccc1=O` [Example 113, 6-[5-amino-6-(4-methyl-1-piperazinyl)-3-phenyl-2-pyrazinyl]-2-isopropyl-3(2H)-pyridazinone] registered a melting point of 155 to 157 °C.

For `CC(C)n1nc(-c2nc(N3CCN(Cc4ccccn4)CC3)c(N)nc2-c2ccccc2)ccc1=O` [Example 114, 6-{5-amino-3-phenyl-6-[4-(2-pyridylmethyl)-1-piperazinyl]-2-pyrazinyl}-2-isopropyl-3(2H)-pyridazinone], the melting point was in the range of 88 to 91 °C.

Take `CC(C)n1nc(-c2nc(N3CCN(c4ccccc4)CC3)c(N)nc2-c2ccccc2)ccc1=O` [Example 115, 6-[5-amino-3-phenyl-6-(4-phenyl-1-piperazinyl)-2-pyrazinyl]-2-isopropyl-3(2H)-pyridazinone]: the melting point was in the range of 193 to 195 °C.

Compound `COc1ccc(N2CCN(c3nc(-c4ccc(=O)n(C(C)C)n4)c(-c4ccccc4)nc3N)CC2)cc1` [Example 116, 6-{5-amino-6-[4-(4-methoxyphenyl)-1-piperazinyl]-3-phenyl-2-pyrazinyl}-2-isopropyl-3(2H)-pyridazinone] gave a melting point of 194 to 196 °C.

`CC(=O)N1CCN(c2nc(-c3ccc(=O)n(C(C)C)n3)c(-c3ccccc3)nc2N)CC1` [Example 117, 6-[6-(4-acetyl-1-piperazinyl)-5-amino-3-phenyl-2-pyrazinyl]-2-isopropyl-3(2H)-pyridazinone] yielded a melting point of 221 to 225 °C.

`CC(C)n1nc(-c2nc(N3CCN4CCCC4C3)c(N)nc2-c2ccccc2)ccc1=O` (centres unmarked) [Example 118, 6-[5-amino-6-(hexahydropyrrolo[1,2-a]pyrazin-2(1H)-yl)-3-phenyl-2-pyrazinyl]-2-isopropyl-3(2H)-pyridazinone]: the melting point lay in the range of 205 to 207.5 °C.

On to `CC(C)n1nc(-c2nc(N3CC4CCC(C3)O4)c(N)nc2-c2ccccc2)ccc1=O` [Example 119, 6-[5-amino-6-(8-oxa-3-azabicyclo[3.2.1]oct-3-yl)-3-phenyl-2-pyrazinyl]-2-isopropyl-3(2H)-pyridazinone], for which the melting point is 235 to 238 °C.

In turn, `COCCNc1nc(-c2ccc(=O)n(C)n2)c(-c2ccccc2)nc1N` [Example 120, 6-{5-amino-6-[(2-methoxyethyl)amino]-3-phenyl-2-pyrazinyl}-2-methyl-3(2H)-pyridazinone] came in with a melting point of 231 to 232.5 °C.

Turning to `Cn1nc(-c2nc(NCCN3CCCCC3)c(N)nc2-c2ccccc2)ccc1=O` [Example 121, 6-(5-amino-3-phenyl-6-{[2-(1-piperidinyl)ethyl]amino}-2-pyrazinyl)-2-methyl-3(2H)-pyridazinone], the melting point was 155 to 157 °C.

`Cn1nc(-c2nc(NCCN3CCOCC3)c(N)nc2-c2ccccc2)ccc1=O` [Example 122, 6-(5-amino-6-{[2-(4-morpholinyl)ethyl]amino}-3-phenyl-2-pyrazinyl)-2-methyl-3(2H)-pyridazinone]: the melting point was in the range of 226 to 229 °C.
